We go through 34 molecules from PubChem BioAssay AID588529 (Broad Institute, 2011).

In general, AC50 refers to the midpoint of the concentration-response curve, whichever way the signal moves.

The assay has as its system Candida albicans CaCi-2 growth, Alamar Blue fluorescence, 48 h. In words: antifungal activity of compounds alone, resistant C. albicans – CaCi-2 isolate, Alamar Blue, cherry-pick, dose response (AID 588529). On the technique in general: Alamar Blue is a resazurin reagent that responds to reducing activity.
As to `Oc1c(C(Nc2nccs2)c2ccc(C(F)(F)F)cc2)ccc2cccnc12` (centres undefined), the AC50 was 3.73 µM.
Under `O=Nc1c(-c2cccc([N+](=O)[O-])c2)nc2ncccn12` stands 5.11 µM.
Under `CCOC(=O)N1C(=O)C2(CCCCC2)N(c2ccc(C)cc2)C1=S` stands 0.102 µM; under `COc1ccc(C)cc1N=Nc1ccc(O)c2ncccc12`, 1.71 µM; under `CCCCC(=O)NC(c1ccco1)c1cc(Cl)c2cccnc2c1O` (centres undefined), 6.22 µM.
`CN1CCN(C(c2ccc(C(F)(F)F)cc2)c2cc(Cl)c3cccnc3c2O)CC1` (centres undefined): the AC50 was 2.71 µM.
Take `C=CCNC(=S)N/N=C(\C)c1ccccn1`: the AC50 was 13.8 µM.
With `Oc1c(C(Nc2nc3ccccc3s2)c2ccco2)ccc2cccnc12` (centres undefined), the AC50 is 3.26 µM.
The same measure for `Cc1ccc(C(=O)c2coc3c2C(=O)C(=O)c2ccccc2-3)cc1`: 9.38 µM; for `COc1cccc(N=Nc2ccc3cccnc3c2O)c1`: 1.52 µM.
The same measure for `COc1cccc(N=Nc2ccc(O)c3ncccc23)c1`: 0.39 µM; for `O=C(Oc1c(Cl)cc(Cl)c2cccnc12)c1ccco1`: 0.812 µM; for `Oc1ccc(N=Nc2ccc3c(c2)OCCO3)c2ncccc12`: 2.59 µM.
`CN1CCN(C(c2ccc(C(F)(F)F)cc2)c2ccc3cccnc3c2O)CC1` (centres undefined): the AC50 is 5.05 µM.
Under `C(C#CCCCCCCCCC[n+]1ccccc1)#CCCCCCCCCC[n+]1ccccc1` stands 16.2 µM; under `O=C(N/N=C/c1c(O)ccc2ccccc12)c1cccc(C(F)(F)F)c1`, 1.45 µM.
The same measure for `COc1cccc(/C=N/Nc2ncnc3scc(-c4ccccc4)c23)c1O`: 5.52 µM; for `Oc1c(C(c2ccc(Cl)cc2)N2CCCC2)cc(Cl)c2cccnc12` (centres undefined): 1.51 µM; for `O=Cc1ccc(O)c2ncccc12`: 3.85 µM.
With `CCOc1ccc(N=Nc2ccc(O)c3ncccc23)cc1`, the AC50 is 1.4 µM.
The same measure for `O=C(N/N=C/c1cc2c3c(c1O)CCCN3CCC2)c1ccccc1O`: 1.75 µM.
Under `Oc1ccc(N=Nc2ccc3c(c2)OCCO3)c2cccnc12` stands 3.55 µM; under `Oc1c(CN2CCN(c3ccccc3)CC2)cc(Br)c2cccnc12`, 2.38 µM.
On to `C/C(=N\NC(=O)c1cc2ccccc2cc1O)c1ccccn1`, for which the concentration at half-maximal activity (AC50) was 5 µM.
Under `O=C(Oc1c(Cl)cc(Cl)c2cccnc12)c1cccs1` stands 1.49 µM.
In the case of `O=[N+]([O-])c1cc(CN2CCN(c3ccccc3)CC2)c(O)c2ncccc12`, the AC50 was 5.39 µM.
Consider `CCCCC(=O)NC(c1ccc(Cl)cc1)c1ccc2cccnc2c1O` (centres undefined), for which the AC50 is 5.11 µM.
In the case of `CCCCC(=O)NC(c1ccc(N(CC)CC)cc1)c1ccc2cccnc2c1O` (centres undefined), the AC50 is 3.74 µM.
Under `CCCCCCC[n+]1ccc(-c2cc[n+](CCCCCCC)cc2)cc1` stands 3.76 µM; under `Cc1cc(NC(c2ccc(Cl)cc2)c2ccc3cccnc3c2O)no1` (centres undefined), 4.71 µM; under `Oc1c(CN2CCN(c3ccc(F)cc3)CC2)cc(Cl)c2cccnc12`, 3.73 µM.
The same measure for `O=c1ccc(N=Nc2ccccc2)ccc1O`: 4.76 µM; for `O=[N+]([O-])c1ccc(O)c(/C=N/Nc2ccc(Cl)nn2)c1`: 5.11 µM.
The same measure for `CCN(CC)S(=O)(=O)c1cc(OC)ccc1N=Nc1ccc(O)c2ncccc12`: 10.6 µM.
